From patent US4455315A, “N-(Difluoromethoxy substituted phenyl)-dichloromaleimides used in agricultural and horticultural fungicidal methods” (Showa Denko Kabushiki Kaisha, priority 1980, dated 1984)

Key:
plant pathogens = settings: U.S. Pat. No. 2,444,536; cited from earlier work
Diaporthe citri [1] = assay: Citrus Melanose-controlling Test; type: in vivo; settings: 500 ppm; for Infested Leaves (%): 24 days after inoculation; for Infestation Rate / Number of Leaves Showing Infestation Index 0 / Number of Leaves Showing Infestation Index 1 / Number of Leaves Showing Infestation Index 2 / Number of Leaves Showing Infestation Index 3 / Number of Leaves Showing Infestation Index 4: 24 days; for Infestation Rate: (Σnf/4N)×100; for Number of Leaves Showing Infestation Index 0: index 0 = 0-25% infested area; for Number of Leaves Showing Infestation Index 1: index 1 = 26-50% infested area; for Number of Leaves Showing Infestation Index 2: index 2 = 51-75% infested area; for Number of Leaves Showing Infestation Index 3: index 3 = 76-90% infested area; for Number of Leaves Showing Infestation Index 4: index 4 = 91-100% infested area
Diaporthe citri [2] = assay: Test of Residual Activity against Citrus Melanose; type: in vivo; settings: 1000 ppm, 23 mm/hr of rain; for Infested Leaves (%): 24 days after inoculation; for Infestation Rate: 24 days, (Σnf/4N)×100; for Number of Leaves Showing Each Infestation Index: 0: index 0 = 0-25% infested area; for Number of Leaves Showing Each Infestation Index: 1: index 1 = 26-50% infested area; for Number of Leaves Showing Each Infestation Index: 2: index 2 = 51-75% infested area; for Number of Leaves Showing Each Infestation Index: 3: index 3 = 76-90% infested area; for Number of Leaves Showing Each Infestation Index: 4: index 4 = 91-100% infested area
Phytophthora infestans = type: in vivo; settings: 500 ppm; for Infested Leaves (%): six days after inoculation; for Infestation Rate: six days, (Σnf/3N)×100; for Number of Leaves Showing Each Infestation Index: 0: index 0 = 0% infested area; for Number of Leaves Showing Each Infestation Index: 1: index 1 = 1-25% infested area; for Number of Leaves Showing Each Infestation Index: 2: index 2 = 26-50% infested area; for Number of Leaves Showing Each Infestation Index: 3: index 3 = 51-100% infested area
[3] = tested on: potted potatoes (variety: Chippewa); settings: 500 ppm
[4] = tested on: potted young oranges (variety: Unshu); assay: Phytotoxicity of treating compound, Citrus Melanose test; settings: 500 ppm
[5] = tested on: potted young oranges (variety: Unshu); assay: Phytotoxicity of treating compound, residual activity test; settings: 1000 ppm, 23 mm/hr of rain
Venturia inaequalis = assay: Apple Scab-controlling Test; type: in vivo; settings: 500 ppm; for Infested Leaves (%): seven days after inoculation; for Infestation Rate: seven days, (Σnf/3N)×100; for Number of Leaves Showing Each Infestation Index: 0: index 0 = 0% infested area; for Number of Leaves Showing Each Infestation Index: 1: index 1 = 1-25% infested area; for Number of Leaves Showing Each Infestation Index: 2: index 2 = 26-50% infested area; for Number of Leaves Showing Each Infestation Index: 3: index 3 = 51-100% infested area
Elsinoe fawcetti = assay: Citrus Scab-controlling Test; settings: 250 ppm; for Infested Leaves (%): 23 days after inoculation; for Infestation Rate: 23 days, (Σnf/3N)×100; for Number of Leaves Showing Each Infestation Index: 0: index 0 = 0 spots per leaf; for Number of Leaves Showing Each Infestation Index: 1: index 1 = 1-3 spots per leaf; for Number of Leaves Showing Each Infestation Index: 2: index 2 = 4-10 spots per leaf; for Number of Leaves Showing Each Infestation Index: 3: index 3 = ≥11 spots per leaf
Experimental: (§1) The resulting solution is sprayed, in an amount corresponding to 600 l/10a per pot, on potted young oranges (variety: Unshu) immediately after fresh leaves are unfolded. After one day, the potted young oranges are inoculated with Elsinoe fawcetti, by spraying a suspension of crushed hyphae thereof containing 50 crushed hyphae per microscopic field (magnification: X100). The suspension is prepared by culturing Elsinoe fawcetti on potato medium at a temperature of 25° C. for 30 days to form hyphae and suspending it in sterilized water.
(§2) After inoculation, the potted young oranges are allowed to stand at a temperature of 25° C. in a moist room for two days and then transferred to a greenhouse. Twenty-three days after inoculation, the leaf infested by citrus scab is examined, i.e., number of pathologic spots on a leaf is examined and the numbers of leaves infested by cirtrus scab are counted. Then, an infestation rate is calculated according to the following equation:
Infestation Rate=(Σnf/3N)×100
wherein n is the number of the infested leaves, f is an infestation index and N is the total number of the examined leaves. The infestation index is as follows.
For comparison, the above test is also carried out using a reference compound (benomyl) and plain water.

[6] = tested on: potted apples (variety: Star King); assay: Phytotoxicity of treating compound, Apple Scab test; settings: 500 ppm
[7] = tested on: potted young oranges (variety: Unshu); assay: Phytotoxicity of treating compound, Citrus Scab test; settings: 250 ppm
Experimental: as §1, §2

[8] = tested on: potted pears (variety: Niju-seiki); assay: Test of Phytotoxicity to Pears; type: in vivo, pear; settings: 75% Wettable Powders, two weeks
Excerpt: Test of Phytotoxicity to Pears
After air-drying, the potted pears are allowed to stand in a greenhouse.

crops and trees = settings: cited from earlier work
[9] = tested on: potted apples (variety: Star King); assay: Test of Phytotoxicity to Apples; settings: 75% Wettable Powders, dilution × 750, 600 l/10 a, two weeks
Experimental: The resulting solution of wettable powders is sprayed, in an amount corresponding to 600 l/10a per pot, on potted apples (variety: Star King) immediately after fresh leaves are unfolded. After air-drying, the potted apples are allowed to stand in a greenhouse. Two weeks after the spray treatment, the phytotoxicity, of the compound according to the present invention, to the potted apples is examined.
For comparison, the above test is also carried out using a reference compound (fluoroimide) and plain water.

Alternaria kikuchiana [10] = assay: Spore-germination Inhibiting Test; type: cell-based; settings: 10 ppm, 27° C., 20 hours
Experimental: Spore-germination Inhibiting Test for Alternaria kukuchiana An apricot medium is inoculated with Alternaria kikuchiana and incubated at a temperature of 27° C. for 7-10 days to form conidia on the medium. […] 0.02 Ml of the prepared spore suspension containing the compound according to the present invention is dropped on a slide glass and incubated at a temperature of 27° C. under moist conditions for 20 hours. Thereafter, whether or not the spores germinate is examined under a microscope and the spore-germination rate is then calculated.

Alternaria mali = assay: Apple Alternaria Leaf Spot-controlling Test; type: in vivo; settings: 500 ppm, six days after inoculation
[11] = tested on: Pseudoperonospora cubensis; assay: Cucumber Downy Mildew-controlling Test; type: in vivo; settings: 1000 ppm, five days after inoculation
Excerpt: Cucumber Downy Mildew (Pseudoperonospora cubensis)-controlling Test […] After one day, the cucumbers are inoculated with Pseudoperonospora cubensis, by spraying a suspension thereof containing 30 spores per microscopic field (magnification: […]), which are collected from the leaves infested by cucumber downy mildew. […] In this test, one cucumber is planted in each pot and three pots are used.

peroral acute toxicity = settings: in vivo, po, four-week-old male mouse
ichthyotoxicity = settings: killifish, in vivo; read-out: Tlm48
TA-100 = assay: mutagenicity test (Ames test), TA-100; type: cell-based
TA-98 = assay: mutagenicity test (Ames test), TA-98; type: cell-based
Alternaria kikuchiana [12] = assay: Pear Black Spot-controlling Test; settings: 500 ppm, six days after inoculation
Experimental: Pear Black Spot (Alternaria kikuchiana)-controlling Test
(§3) The resulting solution is sprayed on unfolded leaves of potted young pears (variety: Niju-seiki) in an amount corresponding to 600 l/10a per pot. After air-drying, the unfolded leaves are inoculated with Alternaria kikuchiana, by spraying a suspension of conidia thereof containing 30 conidia per microscopic field (magnification: X200).
(§4) After inoculation, the potted young pears are allowed to stand at a temperature of 27° C. in a moist room for one day and then transferred to a greenhouse. Six days after inoculation, the leaf area infested by pear black spot, i.e., the area of pathologic spots on a leaf is examined on 5 unfolded leaves per pot and an average infestation rate is then calculated.

[13] = tested on: potted young pears (variety: Niju-seiki); assay: Phytotoxicity of treating compound, Pear Black Spot test; settings: 500 ppm, damaged area on leaves
Experimental: as §3, §4
*The phytotoxicity of the treating compound is evaluated according to the

O=C1C=CC(=O)N1c1ccccc1 [N-phenylmaleimide]
fungicidal effect (plant pathogens): has a fungicidal effect

ZnMnEthylenebisdithiocarbamate [mancozeb]
Infested Leaves (%) (Diaporthe citri [1]): 0%
Infestation Rate (Diaporthe citri [1]): 0
Number of Leaves Showing Infestation Index 0 (Diaporthe citri [1]): 204 leaves
Number of Leaves Showing Infestation Index 1 (Diaporthe citri [1]): 0 leaves
Number of Leaves Showing Infestation Index 2 (Diaporthe citri [1]): 0 leaves
Number of Leaves Showing Infestation Index 3 (Diaporthe citri [1]): 0 leaves
Number of Leaves Showing Infestation Index 4 (Diaporthe citri [1]): 0 leaves
Infested Leaves (%) (Diaporthe citri [2]): 0%
Infestation Rate (Diaporthe citri [2]): 0
Number of Leaves Showing Each Infestation Index: 0 (Diaporthe citri [2]): 159 leaves
Number of Leaves Showing Each Infestation Index: 1 (Diaporthe citri [2]): 0 leaves
Number of Leaves Showing Each Infestation Index: 2 (Diaporthe citri [2]): 0 leaves
Number of Leaves Showing Each Infestation Index: 3 (Diaporthe citri [2]): 0 leaves
Number of Leaves Showing Each Infestation Index: 4 (Diaporthe citri [2]): 0 leaves
Infested Leaves (%) (Phytophthora infestans): 0%
Infestation Rate (Phytophthora infestans): 0
Number of Leaves Showing Each Infestation Index: 0 (Phytophthora infestans): 20 leaves
Number of Leaves Showing Each Infestation Index: 1 (Phytophthora infestans): 0 leaves
Number of Leaves Showing Each Infestation Index: 2 (Phytophthora infestans): 0 leaves
Number of Leaves Showing Each Infestation Index: 3 (Phytophthora infestans): 0 leaves
Phytotoxicity of Treating Compound [3]: - (0%)
Phytotoxicity of Treating Compound [4]: - (0%)
Phytotoxicity of Treating Compound [5]: - (0%)

CCCCNC(=O)n1c(NC(=O)OC)nc2ccccc21 [benomyl, Methyl-1-(butylcarbamoyl)-2-benzimidazolecarbamate]
Infested Leaves (%) (Venturia inaequalis): 0%
Infestation Rate (Venturia inaequalis): 0
Number of Leaves Showing Each Infestation Index: 0 (Venturia inaequalis): 25 leaves
Number of Leaves Showing Each Infestation Index: 1 (Venturia inaequalis): 0 leaves
Number of Leaves Showing Each Infestation Index: 2 (Venturia inaequalis): 0 leaves
Number of Leaves Showing Each Infestation Index: 3 (Venturia inaequalis): 0 leaves
Infested Leaves (%) (Elsinoe fawcetti): 0.6%
Infestation Rate (Elsinoe fawcetti): 0.2
Number of Leaves Showing Each Infestation Index: 0 (Elsinoe fawcetti): 328 leaves
Number of Leaves Showing Each Infestation Index: 1 (Elsinoe fawcetti): 2 leaves
Number of Leaves Showing Each Infestation Index: 2 (Elsinoe fawcetti): 0 leaves
Number of Leaves Showing Each Infestation Index: 3 (Elsinoe fawcetti): 0 leaves
Phytotoxicity of Treating Compound [6]: - (0%)
Phytotoxicity of Treating Compound [7]: - (0%)

O=C1C(Cl)=C(Cl)C(=O)N1c1ccc(F)cc1 [fluoroimide, N(p-Fluorophenyl)-2,3-dichloromaleimide]
Phytotoxicity of Treating Compound ([8]; dilution × 500, 600 l/10 a): ++ (26-50%)
Phytotoxicity of Treating Compound ([8]; dilution × 750, 600 l/10 a): + (6-25%)
phytotoxicity (crops and trees; pear trees, strawberries, beans, and very many other crops): severe phytotoxicity
leaf-burn (crops and trees; wide variety of crops and trees): liable to cause leaf-burn
Phytotoxicity of Treating Compound [9]: + (6-25%)

O=C1C(Cl)=C(Cl)C(=O)N1c1ccc(OC(F)F)cc1 [compound 3, 2,3-dichloro-N-(p-difluoromethoxyphenyl)maleimide]
Spore-germination Rate (%) (Alternaria kikuchiana [10]): 0%
Infested Leaves (%) (Diaporthe citri [1]): 0%
Infestation Rate (Diaporthe citri [1]): 0
Number of Leaves Showing Infestation Index 0 (Diaporthe citri [1]): 271 leaves
Number of Leaves Showing Infestation Index 1 (Diaporthe citri [1]): 0 leaves
Number of Leaves Showing Infestation Index 2 (Diaporthe citri [1]): 0 leaves
Number of Leaves Showing Infestation Index 3 (Diaporthe citri [1]): 0 leaves
Number of Leaves Showing Infestation Index 4 (Diaporthe citri [1]): 0 leaves
Infested Leaves (%) (Diaporthe citri [2]): 0%
Infestation Rate (Diaporthe citri [2]): 0
Number of Leaves Showing Each Infestation Index: 0 (Diaporthe citri [2]): 187 leaves
Number of Leaves Showing Each Infestation Index: 1 (Diaporthe citri [2]): 0 leaves
Number of Leaves Showing Each Infestation Index: 2 (Diaporthe citri [2]): 0 leaves
Number of Leaves Showing Each Infestation Index: 3 (Diaporthe citri [2]): 0 leaves
Number of Leaves Showing Each Infestation Index: 4 (Diaporthe citri [2]): 0 leaves
Average Infestation Rate (%) (Based on infested area) (Alternaria mali): 0%
Average Infestation Rate (%) (Based on infested area) [11]: 0%
Infested Leaves (%) (Phytophthora infestans): 0%
Infestation Rate (Phytophthora infestans): 0
Number of Leaves Showing Each Infestation Index: 0 (Phytophthora infestans): 20 leaves
Number of Leaves Showing Each Infestation Index: 1 (Phytophthora infestans): 0 leaves
Number of Leaves Showing Each Infestation Index: 2 (Phytophthora infestans): 0 leaves
Number of Leaves Showing Each Infestation Index: 3 (Phytophthora infestans): 0 leaves
Infested Leaves (%) (Venturia inaequalis): 0%
Infestation Rate (Venturia inaequalis): 0
Number of Leaves Showing Each Infestation Index: 0 (Venturia inaequalis): 25 leaves
Number of Leaves Showing Each Infestation Index: 1 (Venturia inaequalis): 0 leaves
Number of Leaves Showing Each Infestation Index: 2 (Venturia inaequalis): 0 leaves
Number of Leaves Showing Each Infestation Index: 3 (Venturia inaequalis): 0 leaves
Phytotoxicity of Treating Compound ([8]; dilution × 500, 600 l/10 a): - (0%)
Phytotoxicity of Treating Compound ([8]; dilution × 750, 600 l/10 a): - (0%)
LD50 (peroral acute toxicity): > 300 mg/kg
LC50 at 48 h (ichthyotoxicity): > 10 µg/mL
Ames test TA-100 (TA-100): negative
Ames test TA-98 (TA-98): negative
Phytotoxicity of Treating Compound [3]: - (0%)
Infested Leaves (%) (Elsinoe fawcetti): 0.6%
Infestation Rate (Elsinoe fawcetti): 0.2
Number of Leaves Showing Each Infestation Index: 0 (Elsinoe fawcetti): 311 leaves
Number of Leaves Showing Each Infestation Index: 1 (Elsinoe fawcetti): 2 leaves
Number of Leaves Showing Each Infestation Index: 2 (Elsinoe fawcetti): 0 leaves
Number of Leaves Showing Each Infestation Index: 3 (Elsinoe fawcetti): 0 leaves
Phytotoxicity of Treating Compound [9]: - (0%)
Average Infestation Rate (%) (Based on infested area) (Alternaria kikuchiana [12]): 2%
Phytotoxicity of Treating Compound [6]: - (0%)
Phytotoxicity of Treating Compound [7]: - (0%)
Phytotoxicity of Treating Compound [13]: - (0%)
Phytotoxicity of Treating Compound [4]: - (0%)
Phytotoxicity of Treating Compound [5]: - (0%)
